Source: ChEMBL document CHEMBL1134991, “Alpha(1)-adrenoceptor activation: a comparison of 4-(anilinomethyl)imidazoles and 4-(phenoxymethyl)imidazoles to related 2-imidazolines” (Bioorg Med Chem Lett, 2002)

Target: T1, Alpha-1A adrenergic receptor (Homo sapiens, UniProt P35348)
T1 sequence (P35348 whole entry): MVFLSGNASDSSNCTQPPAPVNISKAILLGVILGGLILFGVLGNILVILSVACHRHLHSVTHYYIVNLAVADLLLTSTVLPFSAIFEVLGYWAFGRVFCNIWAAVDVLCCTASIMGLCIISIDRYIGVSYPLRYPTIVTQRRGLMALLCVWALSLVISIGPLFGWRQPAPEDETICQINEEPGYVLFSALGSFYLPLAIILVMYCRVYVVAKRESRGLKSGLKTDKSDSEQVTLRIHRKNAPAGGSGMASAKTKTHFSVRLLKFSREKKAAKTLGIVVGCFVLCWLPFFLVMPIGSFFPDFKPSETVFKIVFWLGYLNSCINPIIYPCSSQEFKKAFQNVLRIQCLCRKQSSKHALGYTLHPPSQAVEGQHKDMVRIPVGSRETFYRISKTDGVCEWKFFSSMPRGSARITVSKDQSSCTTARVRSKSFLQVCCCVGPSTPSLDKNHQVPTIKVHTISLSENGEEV
Assay: Activation of human alpha-1A adrenergic receptor expressed in rat-1 fibroblasts
Type: functional

| SMILES | EC50 [nM] |
| --- | --- |
| c1ccc(-c2ccno2)c(OCc2c[nH]cn2)c1 | 158 |
| c1ccc(N2CCCCC2)c(NCc2c[nH]cn2)c1 | 50.1 |
| c1ccc(-c2ccccc2OCc2c[nH]cn2)cc1 | 15.8 |
| c1ccc(-c2cnco2)c(NCc2c[nH]cn2)c1 | 50.1 |

The next lines start with the values.

| EC50 [nM] | SMILES |
| --- | --- |
| 126 | CS(=O)(=O)c1ccccc1NCc1c[nH]cn1 |
| 50.1 | CS(=O)(=O)c1ccccc1NCC1=NCCN1 |
| 12.6 | c1ccc(N2CCCCC2)c(NCC2=NCCN2)c1 |

Target: T2, Alpha-1B adrenergic receptor (Homo sapiens, UniProt P35368)
T2 sequence (P35368 whole entry): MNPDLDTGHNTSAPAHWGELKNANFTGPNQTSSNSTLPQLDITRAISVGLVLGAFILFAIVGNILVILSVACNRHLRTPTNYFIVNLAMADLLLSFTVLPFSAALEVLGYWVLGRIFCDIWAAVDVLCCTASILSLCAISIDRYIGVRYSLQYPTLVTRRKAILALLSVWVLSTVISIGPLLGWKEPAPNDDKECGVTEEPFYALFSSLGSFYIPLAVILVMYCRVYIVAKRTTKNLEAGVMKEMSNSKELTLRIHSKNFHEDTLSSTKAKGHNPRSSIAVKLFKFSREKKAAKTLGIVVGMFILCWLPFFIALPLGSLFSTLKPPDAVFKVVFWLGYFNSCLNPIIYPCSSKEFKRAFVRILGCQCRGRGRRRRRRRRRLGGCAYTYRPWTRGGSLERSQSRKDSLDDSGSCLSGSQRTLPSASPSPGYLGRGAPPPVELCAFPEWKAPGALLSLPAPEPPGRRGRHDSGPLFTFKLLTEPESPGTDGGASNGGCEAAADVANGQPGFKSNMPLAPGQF
Assay: In vitro binding affinity against cloned human alpha-1B-adrenoceptor receptors expressed in rat-1 fibroblasts

| IC50 [nM] | SMILES |
| --- | --- |
| 1700 | CCCNC(=O)c1ccccc1NCC1=NCCN1 |
| 2400 | c1ccc(-c2ccccc2OCC2=NCCN2)cc1 |
| 5890 | c1ccc(-c2ccccc2OCc2c[nH]cn2)cc1 |

Target: T3, Alpha-1A adrenergic receptor (Homo sapiens) (UniProt P35348)
T3 sequence (whole entry): T1 sequence (P35348 whole entry)
Assay: Activation of human alpha-1A adrenergic receptor expressed in rat-1 fibroblasts; expressed as a percent of the maximal effect of the phenylephrine
Type: functional

| SMILES | Max [%] |
| --- | --- |
| c1ccc(-c2ccccc2OCC2=NCCN2)cc1 | 96 |
| c1ccc(-c2ccno2)c(OCc2c[nH]cn2)c1 | 91 |
| c1ccc(N2CCCCC2)c(NCc2c[nH]cn2)c1 | 95 |
| c1ccc(-c2ccccc2OCc2c[nH]cn2)cc1 | 102 |
| c1ccc(-c2cnco2)c(NCc2c[nH]cn2)c1 | 120 |

Next, values leading:

| Max [%] | SMILES |
| --- | --- |
| 104 | c1ccc(-c2ccccc2OCC2=NCCN2)nc1 |
| 97 | CS(=O)(=O)c1ccccc1NCc1c[nH]cn1 |
| 105 | CS(=O)(=O)c1ccccc1NCC1=NCCN1 |
| 114 | c1ccc(N2CCCCC2)c(NCC2=NCCN2)c1 |

Target: T4, Alpha-1D adrenergic receptor (Homo sapiens, UniProt P25100)
T4 sequence (P25100 whole entry): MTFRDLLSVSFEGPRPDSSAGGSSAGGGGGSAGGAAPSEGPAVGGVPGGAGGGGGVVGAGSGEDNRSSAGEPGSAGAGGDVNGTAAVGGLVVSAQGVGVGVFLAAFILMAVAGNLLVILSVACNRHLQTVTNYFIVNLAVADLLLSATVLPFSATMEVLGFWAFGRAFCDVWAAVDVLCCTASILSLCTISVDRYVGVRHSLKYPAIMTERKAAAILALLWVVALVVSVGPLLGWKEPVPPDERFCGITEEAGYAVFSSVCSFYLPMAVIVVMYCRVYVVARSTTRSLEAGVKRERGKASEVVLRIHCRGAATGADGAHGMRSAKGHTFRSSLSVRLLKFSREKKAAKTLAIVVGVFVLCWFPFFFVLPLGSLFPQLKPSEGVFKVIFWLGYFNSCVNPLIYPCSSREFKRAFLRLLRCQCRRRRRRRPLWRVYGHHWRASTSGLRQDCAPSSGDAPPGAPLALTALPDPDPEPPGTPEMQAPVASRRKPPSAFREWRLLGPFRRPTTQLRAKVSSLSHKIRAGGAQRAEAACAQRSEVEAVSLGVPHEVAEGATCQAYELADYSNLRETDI
Assay: In vitro binding affinity against cloned human alpha-1D-adrenoceptor receptors expressed in rat-1 fibroblasts

| IC50 [nM] | SMILES |
| --- | --- |
| 513 | CCCNC(=O)c1ccccc1NCC1=NCCN1 |
| 550 | c1ccc(-c2ccccc2OCC2=NCCN2)cc1 |
| 933 | c1ccc(-c2ccccc2OCc2c[nH]cn2)cc1 |

Target: T4, Alpha-1D adrenergic receptor
Assay: Activation of human Alpha-1D adrenergic receptors expressed in rat-1 fibroblasts
Type: functional

| SMILES | EC50 [nM] |
| --- | --- |
| c1ccc(-c2ccno2)c(OCc2c[nH]cn2)c1 | > 100000 |
| c1ccc(N2CCCCC2)c(NCc2c[nH]cn2)c1 | > 5010 |
| c1ccc(-c2ccccc2OCc2c[nH]cn2)cc1 | > 100000 |
| c1ccc(-c2cnco2)c(NCc2c[nH]cn2)c1 | > 251 |

Continued, values first:

| EC50 [nM] | SMILES |
| --- | --- |
| > 100000 | CS(=O)(=O)c1ccccc1NCc1c[nH]cn1 |
| > 100000 | CS(=O)(=O)c1ccccc1NCC1=NCCN1 |
| > 5010 | c1ccc(N2CCCCC2)c(NCC2=NCCN2)c1 |

Target: T5, Alpha-1D adrenergic receptor (Homo sapiens) (UniProt P25100)
T5 sequence (whole entry): T4 sequence (P25100 whole entry)
Assay: Activation of human alpha-1D-adrenoceptor receptor expressed in rat-1 fibroblasts relative to phenylephrine
Type: functional

| Max [%] | SMILES |
| --- | --- |
| 51 | c1ccc(-c2cnco2)c(NCc2c[nH]cn2)c1 |

Target: T1, Alpha-1A adrenergic receptor
Assay: In vitro binding affinity against cloned human alpha-1A-adrenoceptor receptors expressed in rat-1 fibroblasts

| IC50 [nM] | SMILES |
| --- | --- |
| 282 | CCCNC(=O)c1ccccc1NCC1=NCCN1 |
| 66.1 | c1ccc(-c2ccccc2OCC2=NCCN2)cc1 |
| 302 | c1ccc(-c2ccccc2OCc2c[nH]cn2)cc1 |

Target: T6, Adrenergic receptor alpha-1 (Rattus norvegicus, UniProt P15823+P23944+P43140)
T6 sequence (P15823 whole entry): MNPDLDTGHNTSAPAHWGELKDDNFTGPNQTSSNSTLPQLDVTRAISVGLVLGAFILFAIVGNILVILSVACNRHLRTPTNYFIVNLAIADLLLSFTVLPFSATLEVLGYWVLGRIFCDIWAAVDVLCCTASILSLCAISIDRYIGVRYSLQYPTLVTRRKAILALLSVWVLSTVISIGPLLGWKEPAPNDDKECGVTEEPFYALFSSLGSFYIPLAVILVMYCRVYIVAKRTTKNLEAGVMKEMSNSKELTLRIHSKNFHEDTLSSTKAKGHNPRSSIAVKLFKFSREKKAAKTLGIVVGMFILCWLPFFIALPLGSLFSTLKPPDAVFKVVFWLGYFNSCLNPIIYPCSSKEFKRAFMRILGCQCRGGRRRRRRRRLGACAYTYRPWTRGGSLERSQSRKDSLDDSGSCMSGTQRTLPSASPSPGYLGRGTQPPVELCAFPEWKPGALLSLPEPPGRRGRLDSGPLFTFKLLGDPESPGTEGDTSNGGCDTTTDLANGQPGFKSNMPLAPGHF
T6 sequence (P23944 whole entry): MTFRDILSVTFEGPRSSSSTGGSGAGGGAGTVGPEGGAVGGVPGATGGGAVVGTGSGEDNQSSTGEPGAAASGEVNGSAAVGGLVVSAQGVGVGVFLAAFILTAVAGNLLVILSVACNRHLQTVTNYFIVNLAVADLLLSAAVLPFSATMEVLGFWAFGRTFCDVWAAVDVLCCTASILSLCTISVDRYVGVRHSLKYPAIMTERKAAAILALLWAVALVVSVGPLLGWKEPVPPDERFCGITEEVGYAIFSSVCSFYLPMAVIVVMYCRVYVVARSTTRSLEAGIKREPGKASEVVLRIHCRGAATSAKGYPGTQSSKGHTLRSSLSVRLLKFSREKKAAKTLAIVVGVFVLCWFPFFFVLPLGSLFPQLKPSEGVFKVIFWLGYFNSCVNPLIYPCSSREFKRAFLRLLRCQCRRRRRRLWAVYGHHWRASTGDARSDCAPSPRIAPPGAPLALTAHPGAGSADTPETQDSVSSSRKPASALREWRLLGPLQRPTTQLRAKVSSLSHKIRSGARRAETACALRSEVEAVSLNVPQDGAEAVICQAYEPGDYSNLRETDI
T6 sequence (P43140 whole entry): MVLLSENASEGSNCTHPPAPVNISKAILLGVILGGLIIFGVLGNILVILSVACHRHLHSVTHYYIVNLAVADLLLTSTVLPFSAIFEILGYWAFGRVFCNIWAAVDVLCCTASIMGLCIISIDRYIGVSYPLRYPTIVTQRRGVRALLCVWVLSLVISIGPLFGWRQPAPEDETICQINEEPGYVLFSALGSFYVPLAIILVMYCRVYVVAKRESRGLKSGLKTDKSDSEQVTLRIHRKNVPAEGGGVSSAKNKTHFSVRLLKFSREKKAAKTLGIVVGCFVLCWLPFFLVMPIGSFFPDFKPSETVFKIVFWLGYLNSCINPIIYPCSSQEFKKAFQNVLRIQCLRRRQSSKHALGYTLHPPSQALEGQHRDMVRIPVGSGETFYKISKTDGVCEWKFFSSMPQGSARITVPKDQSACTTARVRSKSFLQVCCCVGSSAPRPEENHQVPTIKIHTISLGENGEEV
Assay: Inhibition of binding of [3H]-prazosin at alpha1 adrenoceptors isolated from rat brain

| IC50 [nM] | SMILES |
| --- | --- |
| 102 | Cc1ccc(C)c(OCc2c[nH]cn2)c1 |
| 263 | Clc1cccc(Cl)c1NCc1c[nH]cn1 |

Target: T2, Alpha-1B adrenergic receptor
Assay: Activation of human alpha-1B adrenergic receptors expressed in rat-1 fibroblasts
Type: functional

| SMILES | EC50 [nM] |
| --- | --- |
| c1ccc(-c2ccno2)c(OCc2c[nH]cn2)c1 | > 100000 |
| c1ccc(N2CCCCC2)c(NCc2c[nH]cn2)c1 | > 5010 |
| c1ccc(-c2ccccc2OCc2c[nH]cn2)cc1 | > 100000 |
| c1ccc(-c2cnco2)c(NCc2c[nH]cn2)c1 | > 5010 |

Now from value to compound:

| EC50 [nM] | SMILES |
| --- | --- |
| > 100000 | CS(=O)(=O)c1ccccc1NCc1c[nH]cn1 |
| > 100000 | CS(=O)(=O)c1ccccc1NCC1=NCCN1 |
| > 5010 | c1ccc(N2CCCCC2)c(NCC2=NCCN2)c1 |
